Laboratory results published in US12617777B2, “GPR84 antagonists and uses thereof” (Liminal BioSciences Limited, priority 2021, dated 2026).

Biological target: T1, human GPR84 receptor (Homo sapiens, UniProt Q9NQS5)
T1 construct: host or cells: HEK293, transient transfection
Assay: Gαi biosensor BRET assay in HEK293 cells (antagonism of ZQ-16)
Format: cell-based
Conditions: for inhibition at 10 µM: HEK293, single concentration 10 μM (designated F); for inhibition at 25 µM: HEK293, single concentration 25 μM (designated I); for inhibition at 2 µM: HEK293, single concentration 2 μM (designated A); for IC50: HEK293 cells, antagonism of 200 nmol/L ZQ-16
Summary of the method: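 HEK293 cells transiently expressing human GPR84, Gαi2-Rluc8, GFP10-Gγ2 and Gβ1, in Tyrode's buffer pH 7.5. Compounds preincubated 5 min at 37° C, then 200 nmol/L ZQ-16 for 5 min at room temperature; coelenterazine 400A 5 μmol/L. BRET2 acceptor/donor ratio, background- and vehicle-corrected net BRET.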

T1 sequence (Q9NQS5 whole entry): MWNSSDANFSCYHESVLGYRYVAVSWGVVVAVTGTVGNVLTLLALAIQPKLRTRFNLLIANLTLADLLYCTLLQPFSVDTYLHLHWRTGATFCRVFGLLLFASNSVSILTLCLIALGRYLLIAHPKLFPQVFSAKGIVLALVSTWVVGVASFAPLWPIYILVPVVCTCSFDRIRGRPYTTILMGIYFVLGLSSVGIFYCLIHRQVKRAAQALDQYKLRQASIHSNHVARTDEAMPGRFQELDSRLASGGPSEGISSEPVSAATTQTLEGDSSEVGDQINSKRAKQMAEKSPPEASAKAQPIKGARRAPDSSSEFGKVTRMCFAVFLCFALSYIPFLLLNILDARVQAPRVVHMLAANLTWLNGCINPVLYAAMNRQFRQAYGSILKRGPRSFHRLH

Row | inhibition at 10 µM | further results | Structure (SMILES)
1 | 50 to 75% |  | Cc1cc(C#CC2CC2)ccc1-c1cn(CC2OCCCC2(C)C)nn1 (stereo not shown) [Compound I-522, 4-(4-(cyclopropylethynyl)-2-methylphenyl)-1-((3,3-dimethyltetrahydro-2H-pyran-2-yl)methyl)-1H-1,2,3-triazole]
2 | > 75% |  | Cc1cc(N2CC(C)(CO)C2)cnc1-c1cn(CC2OCC(C)(C)CO2)nn1 [Compound I-595]
3 | > 75% |  | CCc1ccc(C#CC2CC2)cc1-n1nc(CC2CCCCO2)oc1=O (stereo not shown) [Compound I-20]
4 | ≤ 25% |  | Cc1ccc(C#N)cc1N(C)c1cn(CC2OCC(C)(C)CO2)nn1 [Compound I-811]
5 |  | inhibition at 25 µM: 25 to 50% | C(#CC1CC1)c1ccc(-c2cn(C[C@H]3CCCCO3)nn2)nc1 [Compound I-28]
6 | 25 to 50% |  | Cc1cc(OCC(C)(C)N(C)C)ccc1-c1cn(C[C@H]2CCCCO2)nn1 [Compound I-289]
7 |  | inhibition at 2 µM: ≤ 25% | Cc1cc(C#CC2CC2)ccc1-c1cn(CC2CCCC(C)(C)O2)nn1 (stereo not shown) [Compound I-610]
8 | > 75% |  | Cc1ccc(C#CC2CC2)cc1[S+]([O-])c1cn(CC2OCC(C)(C)CO2)nn1 (racemic) [Compound I-782, (RS)-4-((5-(cyclopropylethynyl)-2-methylphenyl)sulfinyl)-1-((5,5-dimethyl-1,3-dioxan-2-yl)methyl)-1H-1,2,3-triazole]
9 | ≤ 25% |  | COC(=O)N1CCOC(Cn2cc(-c3ccc(C#CC4CC4)cc3C)nn2)C1 (stereo not shown) [Compound I-105]
10 | ≤ 25% |  | Cc1cc(N2CCN(Cc3ccccn3)CC2)ccc1-c1cncn1C[C@H]1CCCCO1 [Compound I-672]
11 | ≤ 25% |  | Cc1cc(N2CC(C)(C)C2)c(C#CC2CC2)cc1-c1cn(C[C@H]2CCCCO2)nn1 [Compound I-435]
12 | ≤ 25% |  | Cc1cc(-c2cn(CC3CCCCO3)nn2)nnc1C#CC1CC1 (stereo not shown) [Compound I-434]
13 | > 75% |  | Cc1cc(C#CCN)cnc1-c1cn(CC2CCCCO2)nn1 (stereo not shown) [Compound I-826, 3-(5-methyl-6-(1-((tetrahydro-2H-pyran-2-yl)methyl)-1H-1,2,3-triazol-4-yl)pyridin-3-yl)prop-2-yn-1-amine]
14 | ≤ 25% |  | CCc1cc(C#CCNC2CC2)ccc1-c1cn(CC2OCC(C)(C)CO2)nn1 [Compound I-851]
15 | > 75% | IC50: 1 to 3 µM | CCc1cc(C#CCNC(=O)OC(C)C)ccc1-c1cn(CC2CCCCO2)nn1 (stereo not shown) [Compound I-598]
16 | 25 to 50% |  | Cc1cc(C#CC2CC2)ccc1Cc1cn(CC2CCCCO2)nn1 (stereo not shown) [Compound I-300]
17 | > 75% | IC50: 0.3 to 1 µM | Cc1cc(N2CCN(Cc3ccccn3)CC2)ccc1-c1cn(CC2OCC(C)(C)CO2)cn1 [Compound I-682]
18 | 50 to 75% | IC50: > 3 µM | Cc1cc(N2CC(C)(C)C2)cnc1-c1cn(CC2CCCCO2)cn1 (stereo not shown) [Compound I-609]
19 |  | inhibition at 25 µM: ≤ 25% | Cc1c(-c2cccc(C#CC3CC3)c2)cnn1CC1CCCCO1 (stereo not shown) [Compound I-322]
20 | ≤ 25% |  | CC(=O)N1CCN(c2ccc(-c3cn(CC4CCCCO4)nn3)c(C)c2)CC1 (stereo not shown) [Compound I-112]
21 | > 75% |  | Cc1cc(C#CC2CCC2)ccc1-c1cn(CC2CCCCO2)nn1 (stereo not shown) [Compound I-540]
22 | > 75% | IC50: 1 to 3 µM | Cc1cc(C#CC2CC2)ccc1-c1cn(CC2CC3(CC3)CO2)nn1 (stereo not shown) [Compound I-569]
23 | 50 to 75% |  | O=c1oc(CC2CCCCO2)nn1Cc1cccc(C#CC2CC2)c1 (stereo not shown) [Compound I-18, 3-(3-(cyclopropylethynyl)benzyl)-5-((tetrahydro-2H-pyran-2-yl)methyl)-1,3,4-oxadiazol-2(3H)-one]
24 | 50 to 75% |  | CC1(C)COC(Cn2cc(-c3cn(CC4OCC(C)(C)CO4)nn3)nn2)OC1 [Compound I-827]
25 | > 75% |  | CN(C)c1cc(N2CC3(COC3)C2)c(F)cc1-c1cn(CC2OCC(C)(C)CO2)nn1 [Compound I-849]
26 |  | inhibition at 2 µM: ≤ 25% | Cc1cc(C#CC2CC2)ccc1-c1cn(CC2CC(F)(F)CO2)nn1 (stereo not shown) [Compound I-489]
27 | 25 to 50% |  | Cc1cc(C#CCNC(=O)C(C)(C)C)ccc1-c1cn(CC2CCCCO2)nn1 (stereo not shown) [Compound I-208]
